Experimental data reported in US20150105252A1, “SUBSTITUTED PYRAZOLES AS HERBICIDES” (E I DU PONT DE NEMOURS AND COMPANY, priority 2013, published 2015).

What was measured:
crabgrass, large [1] = test: Test A preemergence; assay type: in vivo, Digitaria sanguinalis; conditions: preemergence
How it was run: (§1)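 Greenhouse test in loam soil/sand blend; compounds formulated in non-phytotoxic solvent with surfactant, applied as preemergence directed soil spray or postemergence to plants 2–10 cm tall at one- to two-leaf stage. Injury rated visually versus untreated controls after approximately 10 days on a 0 (no effect) to 100 (complete control) scale.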

morningglory = test: Test A preemergence; assay type: in vivo, Ipomoea spp.; conditions: preemergence, 125 g ai/ha, visual injury approx. 10 days after treatment
How it was run: as §1

velvetleaf = test: Test A preemergence; assay type: in vivo, Abutilon theophrasti; conditions: preemergence, 125 g ai/ha, visual injury approx. 10 days after treatment
How it was run: as §1

corn [2] = test: Test A preemergence; assay type: in vivo, Zea mays; conditions: preemergence
How it was run: as §1

barnyardgrass [3] = test: Test A postemergence; assay type: in vivo, Echinochloa crus-galli; conditions: Postemergence
How it was run: as §1

foxtail, giant = test: Test A postemergence; assay type: in vivo, Setaria faberii; conditions: Postemergence
How it was run: as §1

rice = test: Test B flood; assay type: in vivo, Oryza sativa; conditions: 250 g ai/ha, visual rating on 0 to 100 scale (0 no effect, 100 complete control), 13 to 15 days
How it was run: (§2)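 Each compound is applied to the floodwater of pots holding 2-leaf seedlings, water standing 3 cm over the soil throughout. Plants stay in a greenhouse 13 to 15 days before visual scoring against controls from 0 (no effect) to 100 (complete control).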

barnyardgrass [4] = test: Test B flood; assay type: in vivo, Echinochloa crus-galli; conditions: 250 g ai/ha, visual rating on 0 to 100 scale (0 no effect, 100 complete control), 13 to 15 days
How it was run: as §2

corn [5] = test: Test C preemergence; assay type: in vivo, Zea mays
How it was run: (§3)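 In this greenhouse assay, seeded soil (loam plus sand) or emerged seedlings in peat-vermiculite medium were treated with formulated compound. Roughly two weeks later (13–15 days), each species was scored visually relative to controls, from 0 for no effect to 100 for complete control.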

oilseed rape [6] = test: Test C preemergence; assay type: in vivo, Brassica napus
How it was run: as §3

galium = test: Test C postemergence; assay type: in vivo, Galium aparine
How it was run: as §3

crabgrass, large [7] = test: Test C postemergence; assay type: in vivo, Digitaria sanguinalis
How it was run: as §3

oilseed rape [8] = test: Test C postemergence; assay type: in vivo, Brassica napus; conditions: postemergence
How it was run: as §3

kochia = test: Test C postemergence; assay type: in vivo, Kochia scoparia
How it was run: as §3

[9] = 125 g ai/ha, visual injury approx. 10 days after treatment
[10] = 500 g ai/ha, visual injury after approx. 10 days, 0 to 100 scale (0 no effect, 100 complete control)
[11] = 125 g ai/ha, 0 to 100 scale, 0 no effect, 100 complete control
[12] = 500 g ai/ha, 0 to 100 scale (0 no effect, 100 complete control)
[13] = preemergence, 62 g ai/ha, scale 0 to 100 (0 no effect, 100 complete control), 13 to 15 days
[14] = preemergence, 125 g ai/ha, 13 to 15 days, scale 0 to 100, 0 = no effect, 100 = complete control
[15] = preemergence, 250 g ai/ha, scale 0 to 100, 0 is no effect, 100 is complete control
[16] = Postemergence, 31 g ai/ha, visually evaluated after 13 to 15 days
[17] = postemergence, 62 g ai/ha, scale 0 to 100
[18] = postemergence, 250 g ai/ha, scale 0 to 100 (0 no effect, 100 complete control)
[19] = postemergence, 125 g ai/ha, scale 0 to 100, 0 no effect, 100 complete control

CCc1cc(C(=O)NCC(F)(F)F)nn1Cc1ccnc(Br)c1 [Compound 224]
Crabgrass, Large plant response rating (0 to 100 scale) (crabgrass, large [1]; [9]): 100 | Crabgrass, Large plant response rating (crabgrass, large [1]; [10]): 100 | Morningglory plant response rating (0 to 100 scale) (morningglory): 30 | Velvetleaf plant response rating (0 to 100 scale) (velvetleaf): 100 | Corn plant response rating (0 to 100 scale) (corn [2]; [9]): 30 | Corn plant response rating (corn [2]; [10]): 90 | Barnyardgrass plant response rating (barnyardgrass [3]; [11]): 90 | Barnyardgrass plant response rating (barnyardgrass [3]; [12]): 100 | Foxtail, Giant plant response rating (foxtail, giant; [11]): 90 | Foxtail, Giant plant response rating (foxtail, giant; [12]): 100 | Plant response rating, Rice (rice): 20 | Plant response rating, Barnyardgrass (barnyardgrass [4]): 20 | Plant response rating, Corn (corn [5]; Preemergence, rate head not shown (block before 16 g ai/ha), scale 0 to 100, 100 is complete control): 0 | Corn plant response rating (corn [5]; [13]): 5 | Plant response rating, Corn (corn [5]; [14]): 15 | Corn plant response rating (corn [5]; [15]): 60 | Plant response rating, Oilseed Rape (oilseed rape [6]; Preemergence, rate head not shown (block before 16 g ai/ha), scale 0 to 100): 80 | Oilseed Rape plant response rating (oilseed rape [6]; [13]): 90 | Plant response rating, Oilseed Rape (oilseed rape [6]; [14]): 95 | Oilseed Rape plant response rating (oilseed rape [6]; [15]): 95 | Plant response rating (scale of 0 to 100 where 0 is no effect and 100 is complete control), Galium (galium; [16]): 50 | Galium plant response rating (galium; [17]): 55 | Plant response rating, Galium (galium; [18]): 90 | Plant response rating, Galium (galium; [19]): 40 | Plant response rating (scale of 0 to 100 where 0 is no effect and 100 is complete control), Crabgrass, Large (crabgrass, large [7]; [16]): 5 | Crabgrass, Large plant response rating (crabgrass, large [7]; [17]): 5 | Plant response rating, Crabgrass, Large (crabgrass, large [7]; [18]): 20 | Plant response rating, Crabgrass, Large (crabgrass, large [7]; [19]): 5 | Oilseed Rape plant response rating (oilseed rape [8]; 62 g ai/ha, scale 0 to 100): 50 | Plant response rating, Oilseed Rape (oilseed rape [8]; 250 g ai/ha, scale 0 to 100 (0 no effect, 100 complete control)): 55 | Plant response rating, Oilseed Rape (oilseed rape [8]; 125 g ai/ha, scale 0 to 100, 0 no effect, 100 complete control): 50 | Plant response rating (scale of 0 to 100 where 0 is no effect and 100 is complete control), Kochia (kochia; [16]): 80 | Kochia plant response rating (kochia; [17]): 85 | Plant response rating, Kochia (kochia; [18]): 90 | Plant response rating, Kochia (kochia; [19]): 90
